Where “and” joins values, the source holds several entries; their conditions need not be identical. Identical values can stand only once.
Experiments:
E. faecium NCTC 12204 = assay: inhibition of bacterial growth, OD600 after 20 h; type: cell-based, Enterococcus faecium; conditions: SSA 5.0 mM, 2.5% ethanol, negative = enhanced growth
E. faecalis NCTC 775 = assay: inhibition of bacterial growth, OD600 after 20 h; type: cell-based, Enterococcus faecalis; conditions: SSA 5.0 mM, 2.5% ethanol, negative = enhanced growth
E. coli NCTC 12923 = assay: inhibition of bacterial growth, OD600 after 20 h; type: cell-based, Escherichia coli; conditions: SSA 5.0 mM, 2.5% ethanol, negative = enhanced growth
Caco-2 cell line = assay: bi-directional permeability in Caco-2 cell line; type: in vitro ADME, human
Protocol: Metabolic stability was assessed in mouse and rat liver microsomes. Microsomes are subcellular fractions of hepatocytes and contain CYP450s, the predominant enzymes involved in first-pass metabolism.[66] […] A plasma protein binding assay was performed to assess the extent of compound binding to plasma proteins. This is key as only unbound compound is free to distribute and exert a pharmacological effect. […] To assess the potential for this sub-class of SSAs to be developed as drugs for oral administration, Caco-2 permeability assays were also performed, as a cellular model indicative of human intestinal permeability. […]
Sample analysis was by electrospray ionisation. […]
Bi-directional Permeability in Caco-2 Cell Line:
The bi-directional permeability in Caco-2 cell lines was determined by seeding cells onto an HTS Transwell plate. Cells were cultivated for 14-18 days in a cell culture incubator at 37 °C, 5 % CO2, 95 % relative humidity. Cell culture medium was replaced every other day. To assess monolayer integrity the transepithelial electrical resistance (TEER) across the monolayer was measured using Millicell Epithelial volt-ohm meter prior to assay and Lucifer yellow (LY) fluorescence measurement post-assay.
Test and control compounds were prepared in DMSO and diluted in Hank’s Balanced Saline […]
Solution (HBSS, pH 7.4) to a final concentration of 5 or 10 µM. Compound was added to the […]
donor compartment of the transwell plate for both apical to basolateral (A>B) and basolateral […]
to apical (B>A) measurements, with blank HBSS being added to the receiver compartment.
The transwell plate was then incubated at 37 °C, 5 % CO2 for 2 hours.

[1] = system: all Gram-positive bacteria tested; assay: inhibition of bacterial growth, span over the Gram-positive panel; type: cell-based, S. aureus, E. faecalis, E. faecium; conditions: SSA 5.0 mM, 20 hours; read-out: inhibition against all Gram-positive bacteria tested (span)
Protocol: With the self-associative properties of 1–10 established, the antimicrobial activity of these SSAs were determined against a panel of clinically relevant, high-priority pathogens including: P. aeruginosa PAO1; Klebsiella pneumonia (K. pneumoniae) M6; E. coli NCTC 12923; Acinetobacter baumannii (A. baumannii) ATCC 17978; S. aureus ATCC 9144; Enterococcus faecalis (E. faecalis) NCTC 775; and Enterococcus faecium (E. faecium) NCTC 12204. […] However, it should be noted that the SSA stock solution was prepared in a H2O 5% EtOH solution, to ensure that the SSA aggregates formed were in line with those characterised within the scope of the SSA self-association studies.
Section 3: Biological methods
These methods were taken directly from UK Health and Security Office (UKHSA) standard […]
Preparation of Luria Broth media (LB): Yeast extract (5.0 g), tryptone (10.0 g) and sodium chloride (10.0 g) were dissolved in dH₂O (1.0 L) then divided into bottles and autoclaved.
Preparation of Luria Broth (LB) agar plates: Agar (6.0 g) was added to LB (400 mL) and autoclaved. […]
Preparation of 96 well microplate for MIC50: The 1:100 cell suspension (150 µL) was dispensed into individual wells under sterile conditions. […] The plates were sealed using parafilm, then incubated at 37 °C in a microplate reader for 20 hours. […]

[2] = Caco-2, 5 or 10 µM, HBSS pH 7.4, 2 hours

O=C(O)CC[C@H](NC(=O)Nc1ccc(C(F)(F)F)cc1)C(=O)O [SSA 1]
Percentage inhibition of bacterial growth, NCTC 12204 (E. faecium) (E. faecium NCTC 12204): 99.02% and 99% | Percentage inhibition of bacterial growth, NCTC 775 (E. faecalis) (E. faecalis NCTC 775): 98.79% and 99% | Percentage inhibition of bacterial growth, NCTC 12923 (E. coli) (E. coli NCTC 12923): 64.03% and 64%

O=C(O)CC[C@H](NC(=O)Nc1ccc(C(F)(F)F)cc1)C(=O)O [SSA 2]
Percentage inhibition of bacterial growth, NCTC 12204 (E. faecium) (E. faecium NCTC 12204): 66.25% and 66% | Percentage inhibition of bacterial growth, NCTC 775 (E. faecalis) (E. faecalis NCTC 775): 21.86% and 22% | Percentage inhibition of bacterial growth, NCTC 12923 (E. coli) (E. coli NCTC 12923): 6.06% and 6% | Efflux Ratio (Caco-2 cell line; Caco-2): 1.71 | Recovery (%) AP-BL (Caco-2 cell line; Caco-2): 99.71% | Recovery (%) BL-AP (Caco-2 cell line; Caco-2): 80.26% | Papp (A-B) (Caco-2 cell line; [2]): 0.14 10-6, cm/s | Papp (B-A) (Caco-2 cell line; [2]): 0.24 10-6, cm/s | inhibition at 5000 µM [1]: 22 to 80%

O=C(O)CC[C@@H](NC(=O)Nc1ccc(C(F)(F)F)cc1)C(=O)O [SSA 3]
inhibition at 5000 µM (E. faecium NCTC 12204; Enterococcus faecium, NCTC12204, 20 h, read-out: Percentage inhibition of bacterial growth, NCTC 12204 (E. faecium)): 99.4% | Percentage inhibition of bacterial growth, NCTC 12204 (E. faecium) (E. faecium NCTC 12204; listed as 3): 99% | inhibition at 5000 µM (E. faecalis NCTC 775; Enterococcus faecalis, NCTC775, 20 h, read-out: Percentage inhibition of bacterial growth, NCTC 775 (E. faecalis)): 98.8% | Percentage inhibition of bacterial growth, NCTC 775 (E. faecalis) (E. faecalis NCTC 775; listed as 3): 99% | Percentage inhibition of bacterial growth, NCTC 12923 (E. coli) (E. coli NCTC 12923; listed as 3): 59.91% and 60%

O=C(O)CC[C@H](NC(=O)Nc1ccc(Br)cc1)C(=O)O [SSA 9]
Percentage inhibition of bacterial growth, NCTC 12204 (E. faecium) (E. faecium NCTC 12204; listed as 9): 44.44% and 44% | Percentage inhibition of bacterial growth, NCTC 775 (E. faecalis) (E. faecalis NCTC 775; listed as 9): 20% | Percentage inhibition of bacterial growth, NCTC 12923 (E. coli) (E. coli NCTC 12923; listed as 9): 62.96% and 63%
